Experimental data published in patent US20250352549A1, “SUBSTITUTED HETEROCYCLIC COMPOUND DERIVATIVES AND THEIR PHARMACEUTICAL USE” (AVELOS THERAPEUTICS INC., priority 0001, published 2025).

Tests used:
[1] = test system: breast cancer MDA-MB-231 cells; details: disclosed in CN 116942819; cited from earlier work
[2] = test system: breast cancer MDA-MB-468 cells; details: disclosed in CN 116942819; cited from earlier work
T cells = details: disclosed in CN 116942819; cited from earlier work
[3] = molecular target: Wild-type human active MASTL (Homo sapiens (Human), UniProt Q96GX5); assay: MASTL activity assay; assay type: biochemical; details: ATP 18 μM, biotin tagged 40-mer ENSA peptide 10 nM, 60 minutes at room temperature, HTRF/FRET readout
Chain of Wild-type human active MASTL (Q96GX5 whole entry): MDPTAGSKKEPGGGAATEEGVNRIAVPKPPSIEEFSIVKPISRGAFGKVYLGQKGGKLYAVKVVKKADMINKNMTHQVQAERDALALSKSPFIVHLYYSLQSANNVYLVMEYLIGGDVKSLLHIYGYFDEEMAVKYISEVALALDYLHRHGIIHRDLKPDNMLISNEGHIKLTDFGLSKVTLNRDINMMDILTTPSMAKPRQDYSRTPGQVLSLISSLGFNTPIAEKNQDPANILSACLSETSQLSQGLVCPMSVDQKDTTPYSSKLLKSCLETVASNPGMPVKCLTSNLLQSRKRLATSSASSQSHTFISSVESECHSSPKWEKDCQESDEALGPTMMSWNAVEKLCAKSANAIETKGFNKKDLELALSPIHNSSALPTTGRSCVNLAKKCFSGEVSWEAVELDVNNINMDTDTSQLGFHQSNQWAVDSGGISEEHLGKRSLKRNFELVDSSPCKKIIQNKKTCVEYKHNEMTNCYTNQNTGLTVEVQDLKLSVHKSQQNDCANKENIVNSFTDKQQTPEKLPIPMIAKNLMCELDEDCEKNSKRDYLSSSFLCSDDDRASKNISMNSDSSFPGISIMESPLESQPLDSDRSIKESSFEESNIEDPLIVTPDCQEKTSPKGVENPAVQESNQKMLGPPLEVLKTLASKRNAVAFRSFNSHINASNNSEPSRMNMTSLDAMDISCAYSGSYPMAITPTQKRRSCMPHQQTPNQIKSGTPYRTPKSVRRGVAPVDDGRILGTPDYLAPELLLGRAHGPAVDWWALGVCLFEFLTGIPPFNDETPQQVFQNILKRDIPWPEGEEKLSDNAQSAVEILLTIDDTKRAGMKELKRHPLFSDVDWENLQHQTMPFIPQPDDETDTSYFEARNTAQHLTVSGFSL
Experimental: Wild-type human active MASTL (154 pM) was incubated in assay buffer (50 mM HEPES, 100 mM NaCl, 0.1 mM EGTA, 10 mM MgCl2, 0.01% Tween-20, 0.5 mM TCEP, pH 7.5) with biotin tagged 40-mer ENSA peptide (10 nM), test compound and ATP (18 μM) for 60 minutes at room temperature. Test compounds were assayed using a 12-point dose range consisting of a 0, DMSO control and 10 sequential doses consisting from 0.0005, 0.002, 0.005, 0.014, 0.04, 0.12, 0.37, 1.11, 3.33 and 10 μM. The DMSO concentration was the same (1%) in all samples. An equal volume of detection buffer (assay buffer+267.5 pM Ab-K, 1.25 nM SA-D2, 20 mM EDTA and 400 mM KF) was added to stop the reaction to make a final volume of 20 μl, RT for 60 mins. Activity was measured using a plate reader (PerkinElmer EnSight) by the FRET signal generated between SA-D2 (streptavidin-D2) and Ab-K (anti-phospho-Serine 67 ENSA antibody (rabbit polyclonal, using standard techniques by a commercial supplier) conjugated to Cryptate). HTRF reagents (CisBio) were prepared as per the manufacturer recommendations. The 40-mer biotin-tagged ENSA peptide (synthesised by Bionics) used was based around Serine 67 on ENSA ([…]).

SMILES | effect on PD-L1 expression of tumor cells which expressed PD-L1 in a high level and were not affected by interferon [1] | effect on the up-regulation of the interferon-induced PD-L1 expression [2] | anti-tumor function of T cells (T cells) | IC50 [3] [nM]
O=C(Nc1nc2ccccc2[nH]1)c1cccc(-n2cccc2)c1 [MKI-1] | not possible to effect | remarkable inhibition effect | effectively enhance the anti-tumor function of T cells | –
CC(C)CC(Nc1nc(N)nc(-c2ccc3cnn(C)c3c2)n1)c1c[nH]c(C(F)(F)F)n1 (single isomer, unassigned) [Example 180A, 6-(1-methylindazol-6-yl)-N4-[(1R or 1S)-3-methyl-1-[2-(trifluoromethyl)-1H-imidazol-4-yl]butyl]-1,3,5-triazine-2,4-diamine] | – | – | – | > 1000
